Results reported in patent US7348427B2, “Antipathogenic benzamide compounds” (Genesoft Pharmaceuticals, Inc., priority 2001, dated 2008).

What was measured:
S. pneumoniae ATCC 49619 = assay: MIC, NCCLS broth microdilution assay; assay type: cell-based, Streptococcus pneumoniae; details: H = S. pneumoniae ATCC 49619
Outline: (§1)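 Broth microdilution per NCCLS M7-A4 (1997) guidelines; MIC recorded as minimal inhibitory concentration.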

[1] = test system: Candida albicans (ATCC 38247); assay: Antifungal MIC assay; assay type: cell-based; details: B = C. albicans ATCC 38247
Outline: (§2)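 Compounds were serially diluted in broth in microtiter plates, inoculated with the test organism, and the lowest concentration inhibiting growth was recorded as MIC, following NCCLS reference methods; fungal assays used the Manual of Clinical Microbiology protocol.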

E. faecalis ATCC 29212 = assay: MIC, NCCLS broth microdilution assay; assay type: cell-based, Enterococcus faecalis; details: C = E. faecalis ATCC 29212
Outline: as §1

[2] = test system: Staphylococcus aureus (ATCC 13709, a methicillin sensitive strain (MSSA)); assay: MIC, NCCLS broth microdilution assay; assay type: cell-based; details: E = S. aureus ATCC 13709
Outline: as §2

[3] = test system: Bacillus cereus (ATCC 11778); assay: MIC, NCCLS broth microdilution assay; assay type: cell-based; details: A = B. cereus ATCC 11778
Outline: as §2

[4] = test system: Staphylococcus aureus (ATCC 27660, a methicillin resistant strain (MRSA)); assay: MIC, NCCLS broth microdilution assay; assay type: cell-based; details: F = S. aureus ATCC 27660
Outline: as §2

| SMILES | Minimum Inhibitory Concentration (MIC) (S. pneumoniae ATCC 49619) | Minimum Inhibitory Concentration (MIC) [1] | Minimum Inhibitory Concentration (MIC) (E. faecalis ATCC 29212) | Minimum Inhibitory Concentration (MIC) [2] | Minimum Inhibitory Concentration (MIC) [3] | Minimum Inhibitory Concentration (MIC) [4] |
| --- | --- | --- | --- | --- | --- | --- |
| Cn1cc(NC(=O)c2cc(NC(=O)c3cc(NC(=O)c4ccc(F)cc4NCCCNC4CCCCC4)cn3C)cn2C)cc1C(N)=O [Compound B-51] | + (+ = 12 ≦ MIC ≦ 32) | >32 µg/mL | >32 µg/mL | ++ (++ = 4 < MIC < 12) | ++ (++ = 4 < MIC < 12) | + (+ = 12 ≦ MIC ≦ 32) |
| Cn1cc(NC(=O)c2cc(NC(=O)c3ccc(Cl)c(Cl)c3)cn2C)cc1C(=O)NCCN1CCOCC1 [Compound B-54] | +++ (+++ = MIC ≦ 4) | >32 µg/mL | ++ (++ = 4 < MIC < 12) | +++ (+++ = MIC ≦ 4) | ++ (++ = 4 < MIC < 12) | ++ (++ = 4 < MIC < 12) |
| Cn1cc(NC(=O)c2cc(NC(=O)c3cc(NC(=O)c4ccc(Cl)cc4NCCCNC4CCCCC4)cn3C)cn2C)cc1C(N)=O [Compound B-63] | +++ (+++ = MIC ≦ 4) | >32 µg/mL | >32 µg/mL | +++ (+++ = MIC ≦ 4) | + (+ = 12 ≦ MIC ≦ 32) | +++ (+++ = MIC ≦ 4) |
| Cn1cc(NC(=O)c2cc(NC(=O)c3cc(NC(=O)c4ccc(Cl)cc4NCCN4CCCCC4)cn3C)cn2C)cc1C(N)=O [Compound B-65] | ++ (++ = 4 < MIC < 12) | >32 µg/mL | + (+ = 12 ≦ MIC ≦ 32) | + (+ = 12 ≦ MIC ≦ 32) | ++ (++ = 4 < MIC < 12) | ++ (++ = 4 < MIC < 12) |
| Cn1cc(NC(=O)c2cc(NC(=O)c3ccc(C#N)cc3)cn2C)cc1C(=O)NCCN1CCOCC1 [Compound B-69] | +++ (+++ = MIC ≦ 4) | >32 µg/mL | + (+ = 12 ≦ MIC ≦ 32) | + (+ = 12 ≦ MIC ≦ 32) | + (+ = 12 ≦ MIC ≦ 32) | >32 µg/mL |
| Cn1cc(NC(=O)c2cc(NC(=O)c3cc(NC(=O)c4ccc(F)cc4F)cn3C)cn2C)cc1C(=O)NCCc1ccccn1 [Compound B-82] | +++ (+++ = MIC ≦ 4) | >32 µg/mL | +++ (+++ = MIC ≦ 4) | +++ (+++ = MIC ≦ 4) | +++ (+++ = MIC ≦ 4) | +++ (+++ = MIC ≦ 4) |
| Cn1cc(NC(=O)c2cc(NC(=O)c3cc(NC(=O)c4ccc(Br)cc4F)cn3C)cn2C)cc1C(=O)NCCN1CCOCC1 [Compound B-83] | +++ (+++ = MIC ≦ 4) | >32 µg/mL | +++ (+++ = MIC ≦ 4) | +++ (+++ = MIC ≦ 4) | +++ (+++ = MIC ≦ 4) | +++ (+++ = MIC ≦ 4) |
| Cn1cc(NC(=O)c2cc(NC(=O)c3cc(NC(=O)c4ccc(OC(F)F)cc4)cn3C)cn2C)cc1C(=O)NCCN1CCCC1 [Compound B-84] | +++ (+++ = MIC ≦ 4) | + (+ = 12 ≦ MIC ≦ 32) | +++ (+++ = MIC ≦ 4) | +++ (+++ = MIC ≦ 4) | +++ (+++ = MIC ≦ 4) | +++ (+++ = MIC ≦ 4) |
| Cn1cc(NC(=O)c2cc(NC(=O)c3cc(NC(=O)c4ccc(OC(F)F)cc4)cn3C)cn2C)cc1C(=O)NCCN1CCCCC1 [Compound B-85] | +++ (+++ = MIC ≦ 4) | + (+ = 12 ≦ MIC ≦ 32) | +++ (+++ = MIC ≦ 4) | +++ (+++ = MIC ≦ 4) | +++ (+++ = MIC ≦ 4) | +++ (+++ = MIC ≦ 4) |
